From patent publication US20100267561A1, “HERBICIDAL PYRIDAZINONE DERIVATIVES” (priority 2007, published 2010)

Legend:
Experiment in all cases: Test B pre-/postemergence plant response
Type in all cases: in vivo
[1] = tested on: yellow nutsedge (Cyperus esculentus); details: for Nutsedge, Yellow plant response rating: 8 g ai/ha
Method in brief: (§1)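 Seeds were sown and sprayed preemergence, while plants at 2 to 18 cm (1- to 4-leaf stage) got postemergence sprays. Compounds were formulated in a non-phytotoxic solvent mixture with surfactant. After 13 to 15 days in a greenhouse, injury was rated visually against untreated controls, 0 (no effect) to 100 (complete control).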

[2] = tested on: woolly cupgrass (Eriochloa villosa); details: for Cupgrass, Woolly plant response rating: 8 g ai/ha
Method in brief: as §1

[3] = tested on: green foxtail (Setaria viridis); details: for Foxtail, Green plant response rating: 8 g ai/ha
Method in brief: as §1

[4] = tested on: lambsquarters (Chenopodium album); details: for Lambsquarters plant response rating: 8 g ai/ha
Method in brief: as §1

corn (Zea mays) = details: for Corn plant response rating: 8 g ai/ha
Method in brief: as §1

[5] = tested on: bermudagrass (Cynodon dactylon); details: for Bermudagrass plant response rating: 8 g ai/ha
Method in brief: as §1

[6] = tested on: giant foxtail (Setaria faberii); details: for Foxtail, Giant plant response rating: 8 g ai/ha
Method in brief: as §1

kochia (Kochia scoparia) = details: for Kochia plant response rating: 8 g ai/ha
Method in brief: as §1

[7] = tested on: wheat (Triticum aestivum); details: for Wheat plant response rating: 8 g ai/ha
Method in brief: as §1

[8] = tested on: cocklebur (Xanthium strumarium); details: for Cocklebur plant response rating: 8 g ai/ha
Method in brief: as §1

[9] = tested on: Russian thistle (Salsola iberica); details: Preemergence
Method in brief: as §1

[10] = tested on: velvetleaf (Abutilon theophrasti); details: for Velvetleaf plant response rating: 8 g ai/ha
Method in brief: as §1

soybean (Glycine max) = details: for Soybean plant response rating: 8 g ai/ha
Method in brief: as §1

[11] = tested on: goosegrass (Eleusine indica); details: for Goosegrass plant response rating: 8 g ai/ha
Method in brief: as §1

[12] = Postemergence, 16 g ai/ha, scale 0 to 100
[13] = Postemergence, 31 g ai/ha, scale 0 to 100, 0 no effect, 100 complete control
[14] = Postemergence, 62 g ai/ha, scale 0 to 100, 0 no effect, 100 complete control
[15] = Preemergence, 16 g ai/ha, scale 0 to 100 (0 no effect, 100 complete control)
[16] = Preemergence, 31 g ai/ha, scale 0 to 100 (0 no effect, 100 complete control)
[17] = Preemergence, 62 g ai/ha, scale 0 to 100
[18] = Preemergence, 31 g ai/ha, 0 to 100 scale, 0 no effect, 100 complete control
[19] = Preemergence, 62 g ai/ha, 0 to 100 scale, 0 no effect, 100 complete control

CCc1cc(-c2ccc(Cl)cc2)nn1-c1c(OC(=O)OC(C)C)cnn(C)c1=O [Compound 41]
Nutsedge, Yellow plant response rating ([1]; postemergence, 0-100 scale): 0 | Plant response rating, Nutsedge, Yellow [1, 12]: 0 | Plant response rating, Nutsedge, Yellow [1, 13]: 0 | Plant response rating, Nutsedge, Yellow [1, 14]: 0 | Plant response rating, Nutsedge, Yellow [1, 15]: 0 | Plant response rating, Nutsedge, Yellow [1, 16]: 0 | Plant response rating, Nutsedge, Yellow [1, 17]: 0 | Nutsedge, Yellow plant response rating ([1]; Preemergence, scale 0 to 100): 0 | Cupgrass, Woolly plant response rating ([2]; postemergence, 0-100 scale): 95 | Plant response rating, Cupgrass, Woolly [2, 12]: 100 | Plant response rating, Cupgrass, Woolly [2, 13]: 100 | Plant response rating, Cupgrass, Woolly [2, 14]: 100 | Plant response rating, Cupgrass, Woolly [2, 15]: 0 | Plant response rating, Cupgrass, Woolly [2, 18]: 0 | Plant response rating, Cupgrass, Woolly [2, 17]: 75 | Cupgrass, Woolly plant response rating ([2]; Preemergence, scale 0 to 100): 0 | Foxtail, Green plant response rating ([3]; postemergence, 0-100 scale): 85 | Plant response rating, Foxtail, Green [3, 12]: 100 | Plant response rating, Foxtail, Green [3, 13]: 100 | Plant response rating, Foxtail, Green [3, 14]: 100 | Plant response rating, Foxtail, Green [3, 15]: 100 | Plant response rating, Foxtail, Green [3, 18]: 100 | Plant response rating, Foxtail, Green [3, 17]: 100 | Foxtail, Green plant response rating ([3]; Preemergence, scale 0 to 100): 100 | Lambsquarters plant response rating ([4]; postemergence, 0-100 scale): 0 | Plant response rating, Lambsquarters [4, 12]: 0 | Plant response rating, Lambsquarters [4, 13]: 0 | Plant response rating, Lambsquarters [4, 14]: 0 | Plant response rating, Lambsquarters [4, 15]: 0 | Plant response rating, Lambsquarters [4, 18]: 0 | Plant response rating, Lambsquarters [4, 17]: 0 | Lambsquarters plant response rating ([4]; Preemergence, scale 0 to 100): 0 | Corn plant response rating (corn (Zea mays); postemergence, 0-100 scale): 85 | Plant response rating, Corn (corn (Zea mays); [12]): 85 | Plant response rating, Corn (corn (Zea mays); [13]): 95 | Plant response rating, Corn (corn (Zea mays); [14]): 95 | Plant response rating, Corn (corn (Zea mays); [15]): 65 | Plant response rating, Corn (corn (Zea mays); [18]): 85 | Plant response rating, Corn (corn (Zea mays); [17]): 95 | Corn plant response rating (corn (Zea mays); Preemergence, scale 0 to 100): 45 | Bermudagrass plant response rating ([5]; postemergence, 0-100 scale): 0 | Plant response rating, Bermudagrass [5, 12]: 0 | Plant response rating, Bermudagrass [5, 13]: 25 | Plant response rating, Bermudagrass [5, 14]: 95 | Bermudagrass plant response rating ([5]; Preemergence, scale 0 to 100 (0 no effect, 100 complete control)): 0 | Plant response rating, Bermudagrass [5, 15]: 0 | Plant response rating, Bermudagrass [5, 18]: 0 | Plant response rating, Bermudagrass [5, 17]: 0 | Foxtail, Giant plant response rating ([6]; postemergence, 0-100 scale): 100 | Plant response rating, Foxtail, Giant [6, 12]: 100 | Plant response rating, Foxtail, Giant [6, 13]: 100 | Plant response rating, Foxtail, Giant [6, 14]: 100 | Plant response rating, Foxtail, Giant [6, 15]: 0 | Plant response rating, Foxtail, Giant [6, 18]: 0 | Plant response rating, Foxtail, Giant [6, 17]: 98 | Foxtail, Giant plant response rating ([6]; Preemergence, scale 0 to 100): 0 | Kochia plant response rating (kochia (Kochia scoparia); postemergence, 0-100 scale): 0 | Plant response rating, Kochia (kochia (Kochia scoparia); [12]): 0 | Plant response rating, Kochia (kochia (Kochia scoparia); [13]): 0 | Plant response rating, Kochia (kochia (Kochia scoparia); [14]): 0 | Plant response rating, Kochia (kochia (Kochia scoparia); [15]): 0 | Plant response rating, Kochia (kochia (Kochia scoparia); [18]): 0 | Plant response rating, Kochia (kochia (Kochia scoparia); [17]): 0 | Kochia plant response rating (kochia (Kochia scoparia); Preemergence, scale 0 to 100): 0 | Wheat plant response rating ([7]; postemergence, 0-100 scale): 80 | Plant response rating, Wheat [7, 12]: 85 | Plant response rating, Wheat [7, 14]: 85 | Plant response rating, Wheat [7, 15]: 15 | Plant response rating, Wheat [7, 16]: 60 | Plant response rating, Wheat [7, 19]: 100 | Wheat plant response rating ([7]; Preemergence, scale 0 to 100): 10 | Cocklebur plant response rating ([8]; postemergence, 0-100 scale): 0 | Plant response rating, Cocklebur [8, 12]: 0 | Plant response rating, Cocklebur [8, 13]: 0 | Plant response rating, Cocklebur [8, 14]: 0 | Plant response rating, Cocklebur [8, 15]: 0 | Plant response rating, Cocklebur [8, 18]: 0 | Plant response rating, Cocklebur [8, 17]: 0 | Cocklebur plant response rating ([8]; Preemergence, scale 0 to 100): 0 | Plant response rating, Russian Thistle ([9]; 31 g ai/ha, scale 0 to 100 (0 no effect, 100 complete control)): 0 | Plant response rating, Russian Thistle ([9]; 62 g ai/ha, scale 0 to 100): 0 | Velvetleaf plant response rating ([10]; postemergence, 0-100 scale): 0 | Plant response rating, Velvetleaf [10, 12]: 0 | Plant response rating, Velvetleaf [10, 14]: 0 | Plant response rating, Velvetleaf [10, 15]: 0 | Plant response rating, Velvetleaf [10, 16]: 0 | Plant response rating, Velvetleaf [10, 19]: 0 | Velvetleaf plant response rating ([10]; Preemergence, scale 0 to 100): 0 | Soybean plant response rating (soybean (Glycine max); postemergence, 0-100 scale): 0 | Plant response rating, Soybean (soybean (Glycine max); [12]): 0 | Plant response rating, Soybean (soybean (Glycine max); [14]): 0 | Plant response rating, Soybean (soybean (Glycine max); [15]): 0 | Plant response rating, Soybean (soybean (Glycine max); [16]): 0 | Plant response rating, Soybean (soybean (Glycine max); [17]): 0 | Soybean plant response rating (soybean (Glycine max); Preemergence, scale 0 to 100): 0 | Goosegrass plant response rating ([11]; postemergence, 0-100 scale): 80 | Plant response rating, Goosegrass [11, 12]: 80 | Plant response rating, Goosegrass [11, 13]: 85 | Plant response rating, Goosegrass [11, 14]: 98 | Plant response rating, Goosegrass [11, 15]: 0 | Plant response rating, Goosegrass [11, 18]: 0 | Plant response rating, Goosegrass [11, 17]: 0 | Goosegrass plant response rating ([11]; Preemergence, scale 0 to 100): 0
